Measurements as given in patent US20220135591A1, “HETEROCYCLIC COMPOUNDS AS INHIBITORS OF MONOACYLGLYCEROL LIPASE (MAGL)” (Hoffmann-La Roche Inc., priority 2019, published 2022).

target: T1, MAGL (Homo sapiens, UniProt Q99685); assay: 2-AG assay: MAGL inhibitory activity by hydrolysis of 2-arachidonoylglycerol to arachidonic acid, mass spectrometry; assay type: biochemical; conditions: 2-AG assay (values marked [b])
T1 sequence (Q99685 1-303): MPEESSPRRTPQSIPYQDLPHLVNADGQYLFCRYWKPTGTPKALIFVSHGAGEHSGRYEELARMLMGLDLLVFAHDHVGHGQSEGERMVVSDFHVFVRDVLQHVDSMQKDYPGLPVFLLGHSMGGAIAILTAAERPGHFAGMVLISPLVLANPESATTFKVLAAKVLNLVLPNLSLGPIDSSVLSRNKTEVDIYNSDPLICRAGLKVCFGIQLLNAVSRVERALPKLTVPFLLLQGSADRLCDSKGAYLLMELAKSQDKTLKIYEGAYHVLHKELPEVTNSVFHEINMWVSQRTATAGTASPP
Description: Alternatively, compounds were profiled for MAGL inhibitory activity by determining the enzymatic activity by following the hydrolysis of the natural substrate 2-arachidonoylglycerol (2-AG) resulting in arachidonic acid, which can be followed by mass spectrometry. This assay is hereinafter abbreviated “2-AG assay”.
The 2-AG assay was carried out in 384 well assay plates (PP, Greiner Cat #784201) in a total volume of 20 μL. Compound dilutions were made in 100% DMSO (VWR Chemicals 23500.297) in a polypropylene plate in 3-fold dilution steps to give a final concentration range in the assay from 12.5 μM to […]. 0.25 μL compound dilutions (100% DMSO) were added to 9 μL MAGL in assay buffer (50 mM TRIS (GIBCO, 15567-027), 1 mM EDTA (Fluka, 03690-100 mL), 0.01% (v/v) Tween. After shaking, the plate was incubated for 15 min at RT. To start the reaction, 10 μL 2-arachidonoylglycerol in assay buffer was added. The final concentrations in the assay was […] and 8 μM 2-arachidonoylglyerol. After shaking and 30 min incubation at RT, the reaction was quenched by the addition of 40 μL of ACN containing 4 μM of d8-arachidonic acid. The amount of arachidonic acid was traced by an online SPE system (Agilent Rapidfire) coupled to a triple quadrupole mass spectrometer (Agilent 6460). A C18 SPE cartridge (G9205A) was used in an ACN/water liquid setup. The mass spectrometer was operated in negative electrospray mode following the mass transitions 303.1→259.1 for arachidonic acid and 311.1→267.0 for d8-arachidonic acid. The activity of the compounds was calculated based on the ratio of intensities [arachidonic acid/d8-arachidonic acid].

| IC50 [nM] | Compound |
| --- | --- |
| 8 | CC(C)(C)c1nnc(-c2ccc(C(=O)N3CCN(c4nc5nc(Cl)ccc5o4)CC3)cc2Cl)o1 [Example 115, (4-(5-(tert-butyl)-1,3,4-oxadiazol-2-yl)-3-chlorophenyl)(4-(5-chlorooxazolo[4,5-b]pyridin-2-yl)piperazin-1-yl)methanone] |
| 140 | Cn1nc(C(C)(C)C)nc1-c1ccc(C(=O)N2CCN(c3nc4nc(Cl)ccc4o3)CC2)cc1 [Example 119, [4-(5-tert-butyl-2-methyl-1,2,4-triazol-3-yl)phenyl]-[4-(5-chlorooxazolo[4,5-b]pyridin-2-yl)piperazin-1-yl]methanone] |
| 932 | O=C(C#Cc1ccccc1)N1CCN(c2nc3nc(Cl)ccc3o2)CC1 [Example 102, 1-(4-(5-chlorooxazolo[4,5-b]pyridin-2-yl)piperazin-1-yl)-3-phenylprop-2-yn-1-one] |
| 22 | O=C(N1CCN(c2nc3nc(Cl)ccc3o2)CC1)N1CC(C#Cc2c(Cl)cccc2Cl)C1 [Example 249, (4-(5-chlorooxazolo[4,5-b]pyridin-2-yl)piperazin-1-yl)(3-((2,6-dichlorophenyl)ethynyl)azetidin-1-yl)methanone] |
| 363 | CC(C)(C)Cn1nnc(-c2ncc(C(=O)N3CCN(c4nc5nc(Cl)ccc5o4)CC3)cc2F)n1 [Example 306, [4-(5-chlorooxazolo[4,5-b]pyridin-2-yl)piperazin-1-yl]-[6-[2-(2,2-dimethylpropyl)tetrazol-5-yl]-5-fluoro-3-pyridyl]methanone] |
| 4 | CC(C)(C)c1nc(-c2ccc(C(=O)N3CCN(c4nc5nc(Cl)ccc5o4)CC3)cc2Cl)no1 [Example 78, [4-(5-tert-butyl-1,2,4-oxadiazol-3-yl)-3-chloro-phenyl]-[4-(5-chlorooxazolo[4,5-b]pyridin-2-yl)piperazin-1-yl]methanone] |
| 25 | O=C(N1CCN(c2nc3nc(Cl)ccc3o2)CC1)N1CC(C#Cc2ccc(F)cc2Cl)C1 [Example 250, [3-[2-(2-chloro-4-fluorophenyl)ethynyl]azetidin-1-yl]-[4-(5-chloro-[1,3]oxazolo[4,5-b]pyridin-2-yl)piperazin-1-yl]methanone] |
| 20 | CC(C)(C)Cn1cc(-c2ccc(C(=O)N3CCN(c4nc5nc(Cl)ccc5o4)CC3)cc2C#N)nn1 [Example 233, 5-(4-(5-chlorooxazolo[4,5-b]pyridin-2-yl)piperazine-1-carbonyl)-2-(1-neopentyl-1H-1,2,3-triazol-4-yl)benzonitrile] |
| 906 | Cc1cc(C(=O)N2CCN(c3nc4nc(Cl)ccc4o3)CC2)cnc1OCC1(F)COC1 [Example 161, (4-(5-chlorooxazolo[4,5-b]pyridin-2-yl)piperazin-1-yl)(6-((3-fluorooxetan-3-yl)methoxy)-5-methylpyridin-3-yl)methanone] |
| 978 | Cc1cc(C(=O)N2CCN(c3nc4nc(Cl)ccc4o3)CC2)cnc1OC[C@H](F)CF [Example 172, (S)-(4-(5-chlorooxazolo[4,5-b]pyridin-2-yl)piperazin-1-yl)(6-(2,3-difluoropropoxy)-5-methylpyridin-3-yl)methanone] |
| 27 | CC(C)(C)Cn1cc(-c2ncc(C(=O)N3CCN(c4nc5nc(Cl)ccc5o4)CC3)cc2F)nn1 [Example 241, (4-(5-chlorooxazolo[4,5-b]pyridin-2-yl)piperazin-1-yl)(5-fluoro-6-(1-neopentyl-1H-1,2,3-triazol-4-yl)pyridin-3-yl)methanone] |
| 326 | Cc1nc(C(=O)N2CCN(c3nc4nc(Cl)ccc4o3)CC2)ccc1OCC1(C(F)(F)F)CC1 [Example 140, [4-(5-chlorooxazolo[4,5-b]pyridin-2-yl)piperazin-1-yl]-[6-methyl-5-[[1-(trifluoromethyl)cyclopropyl]methoxy]-2-pyridyl]methanone] |
| 21 | Cc1cc(C(=O)N2CCN(c3nc4nc(Cl)ccc4o3)CC2)cnc1OCC1(C)CC1 [Example 156, (4-(5-chlorooxazolo[4,5-b]pyridin-2-yl)piperazin-1-yl)(5-methyl-6-((1-methylcyclopropyl)methoxy)pyridin-3-yl)methanone] |
| 1240 | Cc1ccc2oc(N3CCN(C(=O)N4CC(COc5ccc(F)cc5Cl)C4)CC3)nc2n1 [Example 252, [3-[(2-chloro-4-fluorophenoxy)methyl]azetidin-1-yl]-[4-(5-methyl-[1,3]oxazolo[4,5-b]pyridin-2-yl)piperazin-1-yl]methanone] |

Continued, compound first:

| Compound | IC50 [nM] |
| --- | --- |
| Cc1ccc2oc(N3CCN(C(=O)c4ccc(-c5cn(C(C)(C)C)nn5)cc4)CC3)nc2n1 [Example 87, (4-(1-(tert-butyl)-1H-1,2,3-triazol-4-yl)phenyl)(4-(5-methyloxazolo[4,5-b]pyridin-2-yl)piperazin-1-yl)methanone] | 151 |
| CC1CN(c2nc3nc(Cl)ccc3o2)CCN1C(=O)c1ccc(-c2cn(CC(C)(C)C)nn2)cc1 (stereo not drawn) [Example 295, [4-(5-chlorooxazolo[4,5-b]pyridin-2-yl)-2-methyl-piperazin-1-yl]-[4-[1-(2,2-dimethylpropyl)triazol-4-yl]phenyl]methanone] | 243 |
| CC(C)(C)Cn1nncc1-c1ccc(C(=O)N2CCN(c3nc4nc(Cl)ccc4o3)CC2)cc1C(F)(F)F [Example 270, (4-(5-chlorooxazolo[4,5-b]pyridin-2-yl)piperazin-1-yl)(4-(1-neopentyl-1H-1,2,3-triazol-5-yl)-3-(trifluoromethyl)phenyl)methanone] | 323 |
| Cc1ccc2oc(N3CCN(C(=O)c4ccc(-c5cn(C6(C)COC6)nn5)cc4)CC3)nc2n1 [Example 109, [4-(5-methyl-[1,3]oxazolo[4,5-b]pyridin-2-yl)piperazin-1-yl]-[4-[1-(3-methyloxetan-3-yl)triazol-4-yl]phenyl]methanone] | 2520 |
| Cc1ccc2oc(N3CCN(C(=O)c4cnc(OCC5(C(F)(F)F)CC5)c(C)n4)CC3)nc2n1 [Example 167, [4-(5-methyloxazolo[4,5-b]pyridin-2-yl)piperazin-1-yl]-[6-methyl-5-[[1-(trifluoromethyl)cyclopropyl]methoxy]pyrazin-2-yl]methanone] | 63 |
| CC(C)(C)c1nnc(-c2ccc(C(=O)N3CCN(c4nc5nc(Cl)ccc5o4)CC3)cc2C(F)(F)F)o1 [Example 122, [4-(5-tert-butyl-1,3,4-oxadiazol-2-yl)-3-(trifluoromethyl)phenyl]-[4-(5-chlorooxazolo[4,5-b]pyridin-2-yl)piperazin-1-yl]methanone] | 3 |
| Cc1ccc2oc(N3CCN(C(=O)c4ccc(-c5ncn(C(C)(C)C)n5)c(Cl)c4)CC3)nc2n1 [Example 89, (4-(1-(tert-butyl)-1H-1,2,4-triazol-3-yl)-3-chlorophenyl)(4-(5-methyloxazolo[4,5-b]pyridin-2-yl)piperazin-1-yl)methanone] | 25 |
| COc1cc(C(=O)N2CCN(c3nc4nc(C)ccc4o3)CC2)ccc1-c1cn(CC(C)(C)C)nn1 [Example 239, (3-methoxy-4-(1-neopentyl-1H-1,2,3-triazol-4-yl)phenyl)(4-(5-methyloxazolo[4,5-b]pyridin-2-yl)piperazin-1-yl)methanone] | 13 |
| COc1cc(C(=O)N2CCN(c3nc4nc(C)ccc4o3)CC2)cnc1-c1nnn(CC(C)(C)C)n1 [Example 310, [6-[2-(2,2-dimethylpropyl)tetrazol-5-yl]-5-methoxy-3-pyridyl]-[4-(5-methyloxazolo[4,5-b]pyridin-2-yl)piperazin-1-yl]methanone] | 167 |
| CC(C)(C)Cn1nnc(-c2c(F)cc(C(=O)N3CCN(c4nc5nc(Cl)ccc5o4)CC3)cc2F)n1 [Example 300, [4-(5-chlorooxazolo[4,5-b]pyridin-2-yl)piperazin-1-yl]-[4-[2-(2,2-dimethylpropyl)tetrazol-5-yl]-3,5-difluoro-phenyl]methanone] | 10 |
| Cc1ccc2oc(N3CCN(C(=O)c4cnc(OCC5(C(F)(F)F)CC5)c(OCC5(C(F)(F)F)CC5)c4)CC3)nc2n1 [Example 151, (5,6-bis((1-(trifluoromethyl)cyclopropyl)methoxy)pyridin-3-yl)(4-(5-methyloxazolo[4,5-b]pyridin-2-yl)piperazin-1-yl)methanone] | 55 |
| Cc1ccc2oc(N3CCN(C(=O)c4ccc(-c5nnn(CC(C)(C)C)n5)cc4)CC3)nc2n1 [Example 277, (4-(5-methyloxazolo[4,5-b]pyridin-2-yl)piperazin-1-yl)(4-(2-neopentyl-2H-tetrazol-5-yl)phenyl)methanone] | 9 |
| COc1cc(C(=O)N2CCN(c3nc4nc(Cl)ccc4o3)CC2)cnc1-c1nnn(CC(C)(C)C)n1 [Example 311, [4-(5-chlorooxazolo[4,5-b]pyridin-2-yl)piperazin-1-yl]-[6-[2-(2,2-dimethylpropyl)tetrazol-5-yl]-5-methoxy-3-pyridyl]methanone] | 61 |
